# According to patent US20170071944A1, “MODULATORS OF TOLL-LIKE RECEPTORS FOR THE TREATMENT OF HIV” (Gilead Sciences, Inc., priority 2015, published 2017):
# Tested on: PBMC cultures from HIV-1 infected subjects on cART
# Assay: Induced cytokines and chemokines in PBMC cultures from HIV-1 infected subjects on cART (multiplexed Luminex)
# Format: cell-based, human
# Conditions: day 2, geometric mean, 4 subjects
# Method: To further characterize the immune modulatory effect of TLR8 agonists in cells from HIV-infected subjects, the production of secreted cytokines and chemokines was measured in PBMCs from 4 HIV-infected subjects on suppressive cART (anonymized participant IDs 180-183). PBMCs were purified, as described in Example 121, and immediately added to tissue culture plates pre-equilibrated at 37° C. with media containing DMSO (vehicle control) or with the TLR8 modulating compound Example 15 at concentrations ranging from 1.0 nM to 10.0 μM. On day 2 after treatment, cell-free culture supernatants were collected and frozen at −80 C for subsequent analysis. Frozen supernatants were thawed at room temperature, and the indicated cytokines and chemokines were quantified with a custom multiplexed xMAP Luminex® assay following the manufacturer's instructions (Thermo Fisher Scientific Inc., Grand Island, N.Y., custom-designed kit).
# Data are expressed as geometric mean cytokine values (pg/ml) obtained from 4 subjects' PBMCs. Geometric mean fold-activation from three independent incubation samples for each condition. Fold (fold-activation) is calculated as a ratio of the concentration of cytokine detected in cell culture supernatants from agonist treated samples relative to DMSO treated samples
smiles,measurement,setting,value
CCCC[C@H](CO)Nc1nc(N)nc2cccnc12 [Example 15],GRO-α,Ex 15 1 nM,31 pg/mL
same,GRO-α Fold vs DMSO,Ex 15 1 nM,1 fold
same,Granzyme B,Ex 15 1 nM,80 pg/mL
same,Granzyme B Fold vs DMSO,Ex 15 1 nM,<1 fold
same,I-TAC,Ex 15 1 nM,82 pg/mL
same,I-TAC Fold vs DMSO,Ex 15 1 nM,2 fold
same,IFN-α,Ex 15 1 nM,4 pg/mL
same,IFN-α Fold vs DMSO,Ex 15 1 nM,2 fold
same,IFN-γ,Ex 15 1 nM,50 pg/mL
same,IFN-γ Fold vs DMSO,Ex 15 1 nM,2 fold
same,IL-6 pg/ml,Ex 15 1 nM,61 pg/mL
same,IL-8 pg/ml,Ex 15 1 nM,624 pg/mL
same,IL-10 pg/ml,Ex 15 1 nM,25 pg/mL
same,IL-18 pg/ml,Ex 15 1 nM,23 pg/mL
same,IL-23 pg/ml,Ex 15 1 nM,131 pg/mL
same,IL-1RA,Ex 15 1 nM,11610 pg/mL
same,IL-1RA Fold vs DMSO,Ex 15 1 nM,3 fold
same,IL-1β,Ex 15 1 nM,5 pg/mL
same,IL-1β Fold vs DMSO,Ex 15 1 nM,2 fold
same,IL-6 Fold vs DMSO,Ex 15 1 nM,1 fold
same,IL-8 Fold vs DMSO,Ex 15 1 nM,2 fold
same,IL-10 Fold vs DMSO,Ex 15 1 nM,1 fold
same,IL-18 Fold vs DMSO,Ex 15 1 nM,1 fold
same,IL-23 Fold vs DMSO,Ex 15 1 nM,2 fold
same,IP-10 pg/ml,Ex 15 1 nM,696 pg/mL
same,IP-10 Fold vs DMSO,Ex 15 1 nM,3 fold
same,MCP-1 pg/ml,Ex 15 1 nM,180 pg/mL
same,MCP-1 Fold vs DMSO,Ex 15 1 nM,3 fold
same,MIP-1α,Ex 15 1 nM,251 pg/mL
same,MIP-1α Fold vs DMSO,Ex 15 1 nM,5 fold
same,MIP-1β,Ex 15 1 nM,2189 pg/mL
same,MIP-1β Fold vs DMSO,Ex 15 1 nM,2 fold
same,MIP-3α,Ex 15 1 nM,23 pg/mL
same,MIP-3α Fold vs DMSO,Ex 15 1 nM,1 fold
same,MMP-1 pg/ml,Ex 15 1 nM,119 pg/mL
same,MMP-1 Fold vs DMSO,Ex 15 1 nM,1 fold
same,GRO-α,Ex 15 10 nM,29 pg/mL
same,GRO-α Fold vs DMSO,Ex 15 10 nM,1 fold
same,Granzyme B,Ex 15 10 nM,74 pg/mL
same,Granzyme B Fold vs DMSO,Ex 15 10 nM,<1 fold
same,I-TAC,Ex 15 10 nM,70 pg/mL
same,I-TAC Fold vs DMSO,Ex 15 10 nM,1 fold
same,IFN-α,Ex 15 10 nM,4 pg/mL
same,IFN-α Fold vs DMSO,Ex 15 10 nM,2 fold
same,IFN-γ,Ex 15 10 nM,48 pg/mL
same,IFN-γ Fold vs DMSO,Ex 15 10 nM,2 fold
same,IL-6 pg/ml,Ex 15 10 nM,61 pg/mL
same,IL-8 pg/ml,Ex 15 10 nM,333 pg/mL
same,IL-10 pg/ml,Ex 15 10 nM,21 pg/mL
same,IL-18 pg/ml,Ex 15 10 nM,26 pg/mL
same,IL-23 pg/ml,Ex 15 10 nM,86 pg/mL
same,IL-1RA,Ex 15 10 nM,5309 pg/mL
same,IL-1RA Fold vs DMSO,Ex 15 10 nM,1 fold
same,IL-1β,Ex 15 10 nM,2 pg/mL
same,IL-1β Fold vs DMSO,Ex 15 10 nM,1 fold
same,IL-6 Fold vs DMSO,Ex 15 10 nM,1 fold
same,IL-8 Fold vs DMSO,Ex 15 10 nM,1 fold
same,IL-10 Fold vs DMSO,Ex 15 10 nM,1 fold
same,IL-18 Fold vs DMSO,Ex 15 10 nM,2 fold
same,IL-23 Fold vs DMSO,Ex 15 10 nM,1 fold
same,IP-10 pg/ml,Ex 15 10 nM,259 pg/mL
same,IP-10 Fold vs DMSO,Ex 15 10 nM,1 fold
same,MCP-1 pg/ml,Ex 15 10 nM,91 pg/mL
same,MCP-1 Fold vs DMSO,Ex 15 10 nM,1 fold
same,MIP-1α,Ex 15 10 nM,70 pg/mL
same,MIP-1α Fold vs DMSO,Ex 15 10 nM,1 fold
same,MIP-1β,Ex 15 10 nM,1302 pg/mL
same,MIP-1β Fold vs DMSO,Ex 15 10 nM,1 fold
same,MIP-3α,Ex 15 10 nM,23 pg/mL
same,MIP-3α Fold vs DMSO,Ex 15 10 nM,1 fold
same,MMP-1 pg/ml,Ex 15 10 nM,104 pg/mL
same,MMP-1 Fold vs DMSO,Ex 15 10 nM,1 fold
same,TNF-α,Ex 15 10 nM,35 pg/mL
same,TNF-α Fold vs DMSO,Ex 15 10 nM,2 fold
same,GRO-α,Ex 15 100 nM,469 pg/mL
same,GRO-α Fold vs DMSO,Ex 15 100 nM,20 fold
same,Granzyme B,Ex 15 100 nM,79 pg/mL
same,Granzyme B Fold vs DMSO,Ex 15 100 nM,<1 fold
same,I-TAC,Ex 15 100 nM,32 pg/mL
same,I-TAC Fold vs DMSO,Ex 15 100 nM,1 fold
same,IFN-α,Ex 15 100 nM,3 pg/mL
same,IFN-α Fold vs DMSO,Ex 15 100 nM,1 fold
same,IFN-γ,Ex 15 100 nM,49 pg/mL
same,IFN-γ Fold vs DMSO,Ex 15 100 nM,2 fold
same,IL-6 pg/ml,Ex 15 100 nM,4424 pg/mL
same,IL-8 pg/ml,Ex 15 100 nM,2561 pg/mL
same,IL-10 pg/ml,Ex 15 100 nM,2459 pg/mL
same,IL-18 pg/ml,Ex 15 100 nM,20 pg/mL
same,IL-23 pg/ml,Ex 15 100 nM,130 pg/mL
same,IL-1RA,Ex 15 100 nM,41213 pg/mL
same,IL-1RA Fold vs DMSO,Ex 15 100 nM,12 fold
same,IL-1β,Ex 15 100 nM,135 pg/mL
same,IL-1β Fold vs DMSO,Ex 15 100 nM,45 fold
same,IL-6 Fold vs DMSO,Ex 15 100 nM,57 fold
same,IL-8 Fold vs DMSO,Ex 15 100 nM,8 fold
same,IL-10 Fold vs DMSO,Ex 15 100 nM,145 fold
same,IL-12p70 pg/ml,Ex 15 100 nM,6 pg/mL
same,IL-12p70 Fold vs DMSO,Ex 15 100 nM,2 fold
same,IL-18 Fold vs DMSO,Ex 15 100 nM,1 fold
same,IL-23 Fold vs DMSO,Ex 15 100 nM,2 fold
same,IP-10 pg/ml,Ex 15 100 nM,226 pg/mL
same,IP-10 Fold vs DMSO,Ex 15 100 nM,1 fold
same,MCP-1 pg/ml,Ex 15 100 nM,2162 pg/mL
same,MCP-1 Fold vs DMSO,Ex 15 100 nM,33 fold
same,MIP-1α,Ex 15 100 nM,172 pg/mL
same,MIP-1α Fold vs DMSO,Ex 15 100 nM,3 fold
same,MIP-1β,Ex 15 100 nM,1302 pg/mL
same,MIP-1β Fold vs DMSO,Ex 15 100 nM,1 fold
same,MIP-3α,Ex 15 100 nM,28 pg/mL
same,MIP-3α Fold vs DMSO,Ex 15 100 nM,1 fold
same,MMP-1 pg/ml,Ex 15 100 nM,198 pg/mL
same,MMP-1 Fold vs DMSO,Ex 15 100 nM,2 fold
same,TNF-α,Ex 15 100 nM,132 pg/mL
same,TNF-α Fold vs DMSO,Ex 15 100 nM,6 fold
same,GRO-α,Ex 15 1000 nM,413 pg/mL
same,GRO-α Fold vs DMSO,Ex 15 1000 nM,18 fold
same,Granzyme B,Ex 15 1000 nM,878 pg/mL
same,Granzyme B Fold vs DMSO,Ex 15 1000 nM,4 fold
same,I-TAC,Ex 15 1000 nM,105 pg/mL
